The subject of one data set is Huh-7 HCV replicon cells. Description: CC50 assay in Huh-7 HCV replicon cells (CellTiter-Glo). The settings on record: 3 days, 50% cytostatic concentration. Format: cell-based, human. The protocol:
(§1) The anti-HCV activity of the pyrido[3,2-d]pyrimidine derivatives of this invention was tested in a human hepatoma Huh-7 cell line harbouring a HCV replicon. The assay comprised the following steps:
(§2) Step 1: Compound Preparation and Serial Dilution
(§3) • 1. for water soluble pyrido[3,2-d]pyrimidine derivatives, a volume of 500 μL of solution in cell media (DMEM, 10% FBS, P/S, L-Glutamine) was prepared with a concentration being twice the concentration of the starting final serial dilution concentration. […] The rest of the plate, columns 2-12, was filled with 100 μL of cell media. The plate was then placed on a Precision 2000 Workstation to start the serial dilution. Compounds were diluted three times each step from column 1 to column 10. Column 11 was used as a blank control (no compound added). • 2. for pyrido[3,2-d]pyrimidine derivatives requiring DMSO to dissolve, serial dilution is performed in 50% DMSO in a 384-well plate. A solution containing a compound at 100-fold concentration of the starting final serial dilution concentration was prepared in 50% DMSO and added to the pre-specified wells in column 1 of a polypropylene 384-well plate. The plate was then placed on a Precision 2000 Workstation to start the serial dilution. After the serial dilution, a volume of 2 μL of the solution was transferred from the 384-well plate to a 96-well cell culture plate containing 100 μL of cell media on a Biomek FX Workstation. The DMSO concentration in the final assay condition was 0.5% after cells are added to the plate and the total volume in each well is brought to 200 μL. Step 2: to each well of the serial dilution plate prepared above, 100 μL of cell media containing 6000 suspended Huh-7 HCV replicon cells was added with a Multidrop workstation. The plates were incubated for 3 days at 37° C. with 5% CO2. Step 3: Detection: • a) for the EC50 assay, the media in a 96-well cell culture plate was aspirated with a Biotek EL405 plate-washer. A volume of 200 μL of a solution containing a 1:1 mixture of cell-lysis buffer (Promega, Luciferase Cell Culture Lysis 5× Reagent, cat. #E1531) and luciferase substrate solution (Promega, Luciferase Assay, cat. #E4550) was added to each well of the plate with Multidrop.
(§4) Results in table 7 are expressed by the following data: • the 50% effective concentration (EC50), i.e. the concentration that protects 50% of the cell monolayer from virus-induced cythopathic effect, and • the 50% cytostatic concentration (CC50), i.e. the concentration that results in 50% inhibition of cell growth. Table 7 further indicates the nature of substituents being present in positions 2, 4 and 6 of the pyrido[3,2-d]pyrimidine derivatives of the invention.
Background: In antiviral work, replicon cells carry a viral genome segment that copies itself.

Another data set has as its system HCV replicon. Description: Anti-HCV assay / replicon assay (EC50, luciferase read-out). Format: cell-based, hepatitis C virus (HCV). The settings on record: for CC50/EC50: CC50/EC50 ratio (selectivity index). The protocol: as §1, §2, §3, §4
Where [1] appears, read: human hepatoma Huh-7 cell line harbouring a HCV replicon, 3 days, luciferase luminescence, read-out: EC50.

CC50, CC50/EC50 and EC50 data for 22 compounds are collected here from patent US8232278B2 (Gilead Sciences, Inc., priority 2005, dated 2012).

Like-named read-outs stand apart in the source and are kept apart here.

Broadly, the CC50 is the concentration at which the toxic effect on the cells reaches its halfway point. Read a high CC50 as lower toxicity to the cells. The term EC50 denotes the concentration needed to bring the measured effect to its halfway point.

As to `Cc1cccc(NC(=O)N2CCN(c3nc(N)nc4ccc(-c5ccc(F)cc5)nc34)CC2)c1` [Example 390, 2-amino-4-[N-(3-methylphenyl-carbamoyl)-piperazin-1-yl]-6-(4-fluorophenyl)-pyrido[3,2-d]pyrimidine], the midpoint of cytotoxicity with Huh-7 HCV replicon cells, the CC50, lay at 3500 nM. In addition, the CC50/EC50 with HCV replicon came out at 575. For the same compound, the concentration for a half-maximal effect (EC50) on HCV replicon (setting [1]) worked out at 6 nM.
`O=C(Nc1cccc(Cl)c1)N1CCN(c2ncnc3ccc(-c4ccc5c(c4)OCO5)nc23)CC1` [Example 85, 4-[(N-3-chlorophenylcarbamoyl)-piperazin-1-yl]-6-(3,4-methylenedioxy)phenyl-pyrido[3,2-d]pyrimidine] had a half-maximal cytotoxic concentration (CC50) with Huh-7 HCV replicon cells of 1200 nM. The CC50/EC50 in the data set on HCV replicon came out at 64. The EC50 at HCV replicon (setting [1]) is 19 nM.
`Cc1ccc(-c2ccc3ncnc(N4CCN(C(=O)Nc5cccc(Cl)c5)CC4)c3n2)cc1C` [Example 84] yielded a CC50 with Huh-7 HCV replicon cells of 21800 nM. The CC50/EC50 with HCV replicon was 167. Further, on HCV replicon (setting [1]), the concentration giving a half-maximal response (EC50) turned out to be 130 nM.
On to `Nc1nc(N2CCN(C(=O)COc3ccc(Cl)cc3)CC2)c2nc(-c3ccoc3)ccc2n1` [Example 381, 2-amino-4-[N-(4-chlorophenoxyacetyl)piperazin-1-yl]-6-(furan-3-yl)pyrido-[3,2-d]pyrimidine], for which half-maximal cytotoxicity with Huh-7 HCV replicon cells (CC50) was put at 9100 nM. Moreover, the CC50/EC50 in the data set on HCV replicon came out at 149. Besides, on HCV replicon (setting [1]), the EC50 came out at 61 nM.
As for `CCOc1nc(N)nc2ccc(-c3ccc(OC)c(OC)c3)nc12` [Example 307, 2-amino-4-ethoxy-6-(3,4-dimethoxy)pyrido[3,2-d]pyrimidine], the CC50 in the data set with Huh-7 HCV replicon cells came out at 50100 nM. In addition, the CC50/EC50 with HCV replicon worked out at 264. For the same compound, the 50% effective concentration (EC50) on HCV replicon (setting [1]) is 190 nM.
The compound `Cc1cccc(NC(=O)N2CCN(c3nc(N)nc4ccc(-c5ccc(Cl)c(Cl)c5)nc34)CC2)c1` [Example 191, 2-amino-4-[N-(3-methyl-phenyl-carbamoyl)-piperazin-1-yl]-6-(3,4-dichlorophenyl)-pyrido[3,2-d]pyrimidine] displayed a CC50 in the data set on Huh-7 HCV replicon cells of 1200 nM. Besides, the CC50/EC50 in the data set with HCV replicon turned out to be 132. On HCV replicon (setting [1]), the EC50 is 9 nM.
In the data set with Huh-7 HCV replicon cells, `Nc1nc(N2CCN(C(=O)COc3ccc(Cl)cc3)CC2)c2nc(-c3ccncc3)ccc2n1` [Example 386, 2-amino-4-[N-(4-chlorophenoxyacetyl)piperazin-1-yl]-6-(pyridin-4-yl)pyrido-[3,2-d]pyrimidine] yielded a CC50 of 6000 nM. Further, in the data set with HCV replicon, the CC50/EC50 was 4585. Also, on HCV replicon (setting [1]), the concentration giving a half-maximal response (EC50) turned out to be 1 nM.
In the data set with Huh-7 HCV replicon cells, `Nc1nc(N2CCN(C(=O)COc3ccc(Cl)cc3)CC2)c2nc(-c3ccc(Cl)c(Cl)c3)ccc2n1` [Example 188, 2-amino-4-[N-(4-chlorophenoxy-acetyl)-piperazin-1-yl]-6-(3,4-dichlorophenyl)-pyrido[3,2-d]pyrimidine] had a CC50 of 12300 nM. In addition, the CC50/EC50 in the data set on HCV replicon is on record as 211. In addition, the EC50 at HCV replicon (setting [1]) was 58 nM.
In turn, `CCOc1nc(N)nc2ccc(-c3ccc(N)cc3)nc12` [Example 465, 6-(4-amino-phenyl)-4-ethoxy-pyrido[3,2-d]pyrimidin-2-ylamine] gave a half-maximal cytotoxic concentration (CC50) in the data set with Huh-7 HCV replicon cells of 50100 nM. Moreover, the CC50/EC50 with HCV replicon was 145. Further, the EC50 with HCV replicon (Hepatitis C virus, Huh-7, 72 h) is 346 nM.
Take `N#Cc1ccc(-c2ccc3nc(N)nc(N4CCN(C(=O)COc5ccc(Cl)cc5)CC4)c3n2)cc1` [Example 378, 2-amino-4-[N-(4-chlorophenoxyacetyl)piperazin-1-yl]-6-(4-cyanophenyl)pyrido-[3,2-d]pyrimidine]: the 50% cytotoxic concentration (CC50) with Huh-7 HCV replicon cells was found to be 4300 nM. Moreover, the CC50/EC50 in the data set with HCV replicon is listed as 571. For the same compound, the concentration for a half-maximal effect (EC50) on HCV replicon (setting [1]) is 8 nM.
As to `Nc1nc(N2CCN(C(=O)COc3ccc(Cl)cc3)CC2)c2nc(-c3ccc4c(c3)OCCO4)ccc2n1` [Example 189, 2-amino-4-[N-(4-chlorophenoxy-acetyl)-piperazin-1-yl]-6-(1,4-benzodioxane)-pyrido[3,2-d]pyrimidine], it took 430 nM to reach half-maximal cytotoxicity in the data set with Huh-7 HCV replicon cells (CC50). Moreover, the CC50/EC50 with HCV replicon amounted to 50. Also, the concentration for a half-maximal effect (EC50) on HCV replicon (setting [1]) is 9 nM.
Regarding `COc1ccc(-c2ccc3nc(N)nc(N4CCN(C(=O)COc5ccccc5)CC4)c3n2)cc1OC` [Example 65, 2-amino-4[(N-phenoxy-acetyl)-piperazin-1-yl]-6-(3,4-dimethoxyphenyl)-pyrido[3,2-d]pyrimidine], half-maximal cytotoxicity in the data set on Huh-7 HCV replicon cells (CC50) was put at 25100 nM. Moreover, the CC50/EC50 in the data set on HCV replicon stood at 90. Also, the EC50 on HCV replicon (setting [1]) turned out to be 280 nM.
Compound `CCOc1ccc(-c2ccc3ncnc(N4CCN(C(=O)Nc5cccc(Cl)c5)CC4)c3n2)cc1Cl` [Example 86] came in with a CC50 in the data set on Huh-7 HCV replicon cells of 25100 nM. Also, the CC50/EC50 with HCV replicon is listed as 100. The half-maximal effective concentration (EC50) at HCV replicon (setting [1]) came to 250 nM.
Regarding “4-[(N-4-chloro-phenylcarbamoyl)-piperazin-1-yl]-6-(3-methyl-4-methoxyphenyl)-pyrido[3,2-d]pyrimidine [Example 121]”, the 50% cytotoxic concentration (CC50) in the data set on Huh-7 HCV replicon cells came out at 19400 nM. Also, the CC50/EC50 with HCV replicon is 162. Besides, the EC50 on HCV replicon (setting [1]) was determined as 120 nM.
The like results for `CSc1nc(N)nc2ccc(-c3ccc(F)cc3)nc12` [Example 392, 2-amino-4-thiomethyl-6-(4-fluorophenyl)-pyrido(3,2-d)pyrimidine] were, in that order, 25100 nM, 512 and 49 nM.
For `COc1cc(-c2ccc3ncnc(N4CCN(C(=O)Nc5cccc(Cl)c5)CC4)c3n2)ccc1OC(C)C` [Example 124], the CC50 in the data set on Huh-7 HCV replicon cells was 2500 nM. For the same compound, the CC50/EC50 in the data set with HCV replicon turned out to be 71. In addition, at HCV replicon (setting [1]), the EC50 came out at 35 nM.
`COc1ccc(-c2ccc3nc(N)nc(Nc4cccc(C)c4)c3n2)cc1OC` [Example 32, 2-amino-4-(3-methyl-anilino)-6-(3,4-dimethoxyphenyl)-pyrido[3,2-d]pyrimidine] returned a CC50 in the data set with Huh-7 HCV replicon cells of 50100 nM. The CC50/EC50 in the data set with HCV replicon was found to be 195. In addition, the half-maximal effective concentration (EC50) in the data set with HCV replicon (Hepatitis C virus, 72 h, human hepatoma Huh-7 cell line harbouring a HCV replicon, 3 days, luciferase luminescence, read-out: EC50) was determined as 258 nM.
Turning to `CCOc1nc(N)nc2ccc(-c3ccc(Cl)cc3)nc12` [Example 463, 6-(4-chloro-phenyl)-4-ethoxy-pyrido[3,2-d]pyrimidin-2-ylamine], the CC50 in the data set on Huh-7 HCV replicon cells was determined as 50100 nM. Also, the CC50/EC50 with HCV replicon came out at 98. The concentration for a half-maximal effect (EC50) in the data set with HCV replicon (Hepatitis C virus, Huh-7, 72 h) worked out at 511 nM.
Compound `Nc1nc(N2CCN(C(=O)COc3ccc(Cl)cc3)CC2)c2nc(-c3ccsc3)ccc2n1` [Example 382, 2-amino-4-[N-(4-chlorophenoxyacetyl)piperazin-1-yl]-6-(thiophen-3-yl)pyrido-[3,2-d]pyrimidine] gave a CC50 in the data set with Huh-7 HCV replicon cells of 13100 nM. Besides, the CC50/EC50 in the data set on HCV replicon was 1523. In addition, at HCV replicon (setting [1]), the 50% effective concentration (EC50) worked out at 9 nM.
The corresponding values for `Nc1nc(N2CCN(C(=O)COc3ccc(Cl)cc3)CC2)c2nc(-c3ccc(F)c(Cl)c3)ccc2n1` [Example 387, 2-amino-4-[N-(4-chlorophenoxyacetyl)piperazin-1-yl]-6-(3-chloro-4-fluorophenyl)-pyrido-[3,2-d]pyrimidine] are 5900 nM, 280 and 21 nM.
Compound `CCSc1nc(N)nc2ccc(-c3ccc(F)cc3)nc12` [Example 393, 2-amino-4-thioethyl-6-(4-fluorophenyl)pyrido(3,2-d)pyrimidine] registered a CC50 with Huh-7 HCV replicon cells of 36000 nM. The CC50/EC50 in the data set on HCV replicon amounted to 154. Further, the concentration giving a half-maximal response (EC50) on HCV replicon (setting [1]) is 234 nM.
The like results for `COc1ccc(-c2ccc3nc(N)nc(NCCN4CCOCC4)c3n2)cc1OC` [Example 38, 2-amino-4-[4-(2-aminoethyl)morpholino]-6-(3,4-dimethoxyphenyl)-pyrido[3,2-d]pyrimidine] were, in that order, 7100 nM, 151 and 47 nM.
